Results on one compound are retold here after patent US20170144985A1, “DIAMINOTRIAZINE COMPOUND USEFUL AS HERBICIDE” (BASF SE, priority 2014, published 2017).

What all share (assay): greenhouse pre-emergence herbicidal test
One assay relates to APESV. The assay is classed as in vivo, Apera spica-venti. The note with it: application rate 0.5 kg/ha, scale from 0 to 100, APESV. From the text:
(§1) The seeds of the test plants were sown separately for each species. For the pre-emergence treatment, the active ingredients, which had been suspended or emulsified in water, were applied directly after sowing by means of finely distributing nozzles. The containers were irrigated gently to promote germination and growth and subsequently covered with transparent plastic hoods until the plants had rooted. This cover caused uniform germination of the test plants, unless this had been impaired by the active ingredients. Depending on the species, the plants were kept at 10-25° C. or 20-35° C., respectively. The test period extended over 2 to 4 weeks. During this time, the plants were tended, and their response to the individual treatments was evaluated. Evaluation was carried out using a scale from 0 to 100. 100 means no emergence of the plants, or complete destruction of at least the aerial moieties, and 0 means no damage, or normal course of growth. A moderate herbicidal activity is given at values of at least 60, a good herbicidal activity is given at values of at least 70, and a very good herbicidal activity is given at values of at least 85. The plants used in the greenhouse experiments were of the following species: [table]

The next assay deals with AMARE. It counts as in vivo, Amaranthus retroflexus. The note with it: application rate 0.5 kg/ha, scale from 0 to 100, AMARE.
Excerpt: as §1

The subject of a further assay is ALOMY. It counts as in vivo, Alopecurus myosuroides. The note with it: application rate 0.5 kg/ha, scale from 0 to 100, ALOMY.
Excerpt: as §1

Molecules are shown by their SMILES.

For the compound `Nc1nc(Nc2c(F)c(F)nc(F)c2F)nc(N2CCCC2)n1` [Example 1, 6-pyrrolidin-1-yl-N4-(2,3,5,6-tetrafluoro-4-pyridyl)-1,3,5-triazine-2,4-diamine], the herbicidal activity entry with APESV, in the assay on AMARE and in the assay with ALOMY was “very good (a very good herbicidal activity is given at values of at least 85)” throughout.
